This is an account of results in patent publication US20050065086A1, “Use of peptide-drug conjugation to reduce inter-subject variability of drug serum levels” (New River Pharmaceuticals Inc., priority 2002, published 2005).

The subject of series [1] is Caco-2 Cells. The settings on record: unlike rapid and efficient in vivo absorption; cited from earlier work.
A further series is described as follows: physchem. The series is classed as physicochemical. The settings on record: pH 7.4, aqueous buffer. From the text:
The enhanced absorption may be explained by the use of an additional transport mechanism, such as one of the peptide transporters.

Series [2] has as its system Caco-2 Cells. The settings on record: cited from earlier work.
For series [3] the following is noted: after oral administration (Gidal and coworkers); cited from earlier work.

With `N[C@@H](Cc1ccc(O)c(O)c1)C(=O)O` [L-dopa], in the series with Caco-2 Cells [1], the “transport by Caco-2 cells” value is listed as “do not transport L-dopa very well”.

One may read the solubility as the concentration that dissolves in the medium under given conditions. Lower therefore signals little dissolved substance. `N[C@@H](Cc1cc(I)c(Oc2cc(I)c(O)c(I)c2)c(I)c1)C(=O)O` [T4, sodium, levothyroxine sodium] gave a solubility in the series “physchem” of 6.9 µg/mL.

Take `NS(=O)(=O)c1cc2c(cc1Cl)N=CNS2(=O)=O` [chlorothiazide]: the permeability entry in the series with Caco-2 Cells [2] (Caco-2) is reported as “low”. Moreover, in the series on Caco-2 Cells [2], the absorption in humans result is “low”.

Regarding `NCC1(CC(=O)O)CCCCC1` [gabapentin], in series [3], the “intersubject CV for the AUC” value was 22.5%.
